≈ marks a conversion by molar mass, not a printed value. Where “and” joins values, the source holds several entries; their conditions need not be identical. Equal values may be shown once.
How the values were obtained:
E. coli ATCC25922 = assay: MIC, planktonic cells; assay type: cell-based; settings: Escherichia coli, ATCC25922, 18 h
P. aeruginosa 110 = assay: MIC, planktonic cells; assay type: cell-based; settings: Pseudomonas aeruginosa, 110, 18 h
Enterococcus faecalis = assay: MIC, planktonic cells; assay type: cell-based; settings: 18 h
P. aeruginosa ATCC27853 = assay: MIC, planktonic cells; assay type: cell-based; settings: Pseudomonas aeruginosa, ATCC27853, 18 h
E. coli A2 = assay: MIC, planktonic cells; assay type: cell-based; settings: Escherichia coli, A2, 18 h
P. aeruginosa CMCC10104 = assay: MIC, planktonic cells; assay type: cell-based; settings: Pseudomonas aeruginosa, CMCC10104, 18 h
S. pneumoniae = assay: MIC, planktonic cells; assay type: cell-based; settings: Streptococcus pneumoniae, 18 h
P. aeruginosa 103 = assay: MIC, planktonic cells; assay type: cell-based; settings: Pseudomonas aeruginosa, 103, 18 h
Mlicrococcus scarlatinae = assay: MIC, planktonic cells; assay type: cell-based; settings: 18 h
[1] = tested on: Drug-susceptible P. aeruginosa; assay: Resistance study, serial passages; assay type: cell-based; settings: passages at 1/4 × MIC
[2] = tested on: Drug-susceptible C. albicans; assay type: cell-based
[3] = tested on: fluconazole-resistant C. albicans; design: species or system G. mellonella; settings: in vivo
C. neoformans 001 = assay: microbe, parasite or virus in culture; assay type: cell-based; settings: Cryptococcus neoformans, 001, 72 h
C. albicans 7248 = assay: microbe, parasite or virus in culture; assay type: cell-based; settings: Candida albicans, 7248, 72 h
C. neoformans ATCC28957 = assay: microbe, parasite or virus in culture; assay type: cell-based; settings: Cryptococcus neoformans, ATCC28957, 72 h
C. neoformans 4906 = assay: microbe, parasite or virus in culture; assay type: cell-based; settings: Cryptococcus neoformans, 4906, 72 h
C. albicans 006 = assay: microbe, parasite or virus in culture; assay type: cell-based; settings: Candida albicans, 006, 72 h
C. albicans ATCC10231 = assay: microbe, parasite or virus in culture; assay type: cell-based; settings: Candida albicans, ATCC10231, 72 h
C. neoformans 6120 = assay: microbe, parasite or virus in culture; assay type: cell-based; settings: Cryptococcus neoformans, 6120, 72 h

| Compound | MIC (E. coli ATCC25922) [µg/mL] | MIC (P. aeruginosa 110) [µg/mL] | MIC (Enterococcus faecalis) [µg/mL] | MIC (P. aeruginosa ATCC27853) [µg/mL] | MIC (E. coli A2) [µg/mL] | MIC (P. aeruginosa CMCC10104) [µg/mL] | MIC (S. pneumoniae) [µg/mL] | MIC (P. aeruginosa 103) [µg/mL] | MIC (Mlicrococcus scarlatinae) [µg/mL] | MIC increase ([1]; at the 8th generation) [fold] | MIC increase ([1]; at the 20th generation) [fold] | MIC increase [2] | also measured |
| --- | --- | --- | --- | --- | --- | --- | --- | --- | --- | --- | --- | --- | --- |
| CC1(C)S[C@@H]2[C@H](NC(=O)COc3ccccc3)C(=O)N2[C@H]1C(=O)O [Penicillin V potassium] | 2 | > 128 | > 128 | 2 | > 128 | 4 | > 128 | > 128 | > 128 |  |  |  |  |
| CC(C)(O/N=C(\C(=O)N[C@@H]1C(=O)N2C(C(=O)[O-])=C(C[n+]3ccccc3)CS[C@H]12)c1csc(N)n1)C(=O)O [Ceftazidime] | 1 (≈ 1.83 µM) | > 128 | > 128 | 1 (≈ 1.83 µM) | 64 (≈ 117 µM) | 0.5 (≈ 0.915 µM) | > 128 | > 128 | > 128 | 4 | 16 |  |  |
| CC(=O)N1CCN(c2ccc(OCC3COC(Cn4ccnc4)(c4ccc(Cl)cc4Cl)O3)cc2)CC1 (stereo not drawn) [ketoconazole] |  |  |  |  |  |  |  |  |  |  |  | 4 fold |  |
| Polymyxin B |  |  |  |  |  |  |  |  |  | 16 |  |  |  |
| C[C@H]1COc2c(N3CCN(C)CC3)c(F)cc3c(=O)c(C(=O)O)cn1c23 [levofloxacin] |  |  |  |  |  |  |  |  |  | 4 | 8 |  |  |
| OC(Cn1cncn1)(Cn1cncn1)c1ccc(F)cc1F [Fluconazole] |  |  |  |  |  |  |  |  |  |  |  | 4 fold and 8 fold | survival rate of G. mellonella [3]: 40%; MIC (C. neoformans 001): 2 µg/mL (≈ 6.53 µM); MIC (C. albicans 7248): > 128 µg/mL; MIC (C. neoformans ATCC28957): 2 µg/mL (≈ 6.53 µM); MIC (C. neoformans 4906): 128 µg/mL (≈ 418 µM); MIC (C. albicans 006): 4 µg/mL (≈ 13.1 µM); MIC (C. albicans ATCC10231): 4 µg/mL (≈ 13.1 µM); MIC (C. neoformans 6120): > 128 µg/mL |

From paper PMC7218270 (EBioMedicine, 2020)
